{
  "source": "patent US8716307B2",
  "about": "“Combination antineoplastic therapy” (The Trustees Of The University of Pennsylvania, priority 2009, dated 2014)",
  "assay_type_in_all_cases": "cell-based",
  "key": {"[1]": {"tested_on": "LN229 cells expressing GFP-LC3", "test": "Cell counting of LN229 GFP-LC3 cells (Coulter Z2 particle analyzer, confirmed by trypan blue exclusion)", "conditions": "5 nM rapamycin and/or 5 μM chloroquine, FIG. 1", "method": "Cell lines, transfection, and cell counting: LN229 cells were grown in DMEM supplemented with 10% heat-inactivated fetal bovine serum (Gemini Biosciences, Woodland, Calif.), 10 units/ml penicillin/streptomycin, and 2 mM L-glutamine (Invitrogen Corporation). LN229 cells were transfected with lipofectamine 2000 (Invitrogen) according to manufacturer protocol. Stable transfectants were selected with neomycin (Gibco), and high fluorescence clones of LN229 GFP-LC3 were selected by limiting dilution. For all in vitro experiments media+supplements and drugs treatments were changed daily. Cell number was assessed by using a Coulter Z2 particle analyzer and confirmed by trypan blue exclusion."}, "[2]": {"tested_on": "LN229 GFP-LC3 cells", "test": "Fluorescence microscopy of GFP-LC3 puncta (autophagosome accumulation)", "conditions": "increasing doses; 48 hours of treatment; FIG. 2", "method": "Punctate flouresence indicates the accumulation of LC3-positive autophagosomes.\nFluorescence Microscopy: Cells were grown in sterile glass coverslips and treated in full medium as indicated above. After 48 hours of treatment cells were fixed with 4% paraformaldehyde and imaged using a Nikon upright fluorescent microscope. Images were captured at 100× and representative images were reported."}, "[3]": {"tested_on": "LN229 GFP-LC3 cells", "test": "Electron microscopy of autophagic vesicles", "conditions": "FIG. 3", "description": "Cells were postfixed with 2% osmium tetroxide followed by an increasing gradient dehydration step using ethanol and propylene oxide."}},
  "data": [
    {"compound": "CO[C@H]1C[C@@H]2CC[C@@H](C)[C@@](O)(O2)C(=O)C(=O)N2CCCC[C@H]2C(=O)O[C@H]([C@H](C)C[C@@H]2CC[C@@H](O)[C@H](OC)C2)CC(=O)[C@H](C)/C=C(\\C)[C@@H](O)[C@@H](OC)C(=O)[C@H](C)C[C@H](C)/C=C/C=C/C=C/1C", "note": "[rapamycin]", "values": [
      {"measurement": "cell number", "setting": "[1]", "value": "decrease in cell number"},
      {"measurement": "accumulation of LC3-positive autophagosomes (punctate fluorescence)", "setting": "[2]", "value": "accumulated LC3-positive autophagosomes"},
      {"measurement": "autophagosomes in electron micrographs", "setting": "[3]", "value": "autophagosomes are observed"}
    ]},
    {"compound": "CCN(CC)CCCC(C)Nc1ccnc2cc(Cl)ccc12", "note": "(centres unmarked) [chloroquine]", "values": [
      {"measurement": "cell number", "setting": "[1]", "value": "decrease in cell number"},
      {"measurement": "accumulation of LC3-positive autophagosomes (punctate fluorescence)", "setting": "[2]", "value": "accumulated LC3-positive autophagosomes"}
    ]}
  ]
}
